Reference: ChEMBL document CHEMBL4145689, “Tailoring the Substitution Pattern on 1,3,5-Triazine for Targeting Cyclooxygenase-2: Discovery and Structure-Activity Relationship of Triazine-4-Aminophenylmorpholin-3-one Hybrids that Reverse Algesia and Inflammation in Swiss Albino Mice” (J Med Chem, 2018)
Active and inactive are the calls of the source. The rule behind the calls is not given here.

How the values were obtained:
[1] = target: T1, Prostaglandin G/H synthase 1 (Ovis aries, UniProt P05979); test: Inhibition of ovine COX1 pre-incubated for 10 mins before arachidonic acid addition and measured after 2 mins by EIA method
T1 sequence (P05979 whole entry): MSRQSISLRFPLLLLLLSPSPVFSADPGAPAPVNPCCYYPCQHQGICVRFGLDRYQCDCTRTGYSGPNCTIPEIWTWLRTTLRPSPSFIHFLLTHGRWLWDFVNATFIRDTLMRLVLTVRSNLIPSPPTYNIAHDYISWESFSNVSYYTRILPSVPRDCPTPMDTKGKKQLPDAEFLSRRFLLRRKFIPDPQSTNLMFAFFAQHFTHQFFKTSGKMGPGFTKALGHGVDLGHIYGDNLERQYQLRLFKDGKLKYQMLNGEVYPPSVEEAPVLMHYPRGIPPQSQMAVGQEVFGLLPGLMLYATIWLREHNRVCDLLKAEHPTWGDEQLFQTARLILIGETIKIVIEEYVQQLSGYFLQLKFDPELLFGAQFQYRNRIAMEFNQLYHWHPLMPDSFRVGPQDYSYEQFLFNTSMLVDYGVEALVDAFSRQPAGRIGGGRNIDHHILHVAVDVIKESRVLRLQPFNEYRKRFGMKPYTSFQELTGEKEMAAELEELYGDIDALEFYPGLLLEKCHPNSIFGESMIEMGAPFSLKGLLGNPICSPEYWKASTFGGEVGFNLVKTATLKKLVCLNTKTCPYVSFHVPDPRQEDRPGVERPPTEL

[2] = target: Prostaglandin G/H synthase 1 (Homo sapiens, UniProt P23219); test: Inhibition of COX1 in human whole blood assessed as A23187-stimulated TxB2 production at 1 uM pre-incubated for 60 mins before A23187 addition and measured after 30 mins by ELISA (reference value: 2 ng/ml); conditions: 0.5 h
Prostaglandin G/H synthase 1 (Homo sapiens, UniProt P23219), sequence (P23219 whole entry): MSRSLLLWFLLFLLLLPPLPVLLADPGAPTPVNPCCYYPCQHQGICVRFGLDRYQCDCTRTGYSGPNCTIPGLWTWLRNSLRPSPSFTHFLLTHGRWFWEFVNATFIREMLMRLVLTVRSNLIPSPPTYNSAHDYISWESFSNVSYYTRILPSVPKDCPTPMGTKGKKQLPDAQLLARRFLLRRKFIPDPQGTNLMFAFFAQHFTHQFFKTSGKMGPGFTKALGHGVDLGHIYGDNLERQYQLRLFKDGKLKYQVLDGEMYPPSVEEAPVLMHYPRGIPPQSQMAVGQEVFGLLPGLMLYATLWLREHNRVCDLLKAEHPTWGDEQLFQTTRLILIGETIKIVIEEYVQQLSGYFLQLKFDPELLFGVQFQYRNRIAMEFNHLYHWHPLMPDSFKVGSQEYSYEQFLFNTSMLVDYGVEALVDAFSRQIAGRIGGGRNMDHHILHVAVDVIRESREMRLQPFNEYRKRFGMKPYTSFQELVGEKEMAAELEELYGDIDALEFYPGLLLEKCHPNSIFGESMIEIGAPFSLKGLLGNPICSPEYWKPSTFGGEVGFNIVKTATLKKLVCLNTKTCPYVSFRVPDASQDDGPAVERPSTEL

Mus musculus [3] = test: Analgesic activity in Swiss albino mouse assessed as inhibition of acetic acid-induced writhings at 5 mg/kg, ip measured 30 mins post acetic acid challenge; type: functional; conditions: 0.5 h
Mus musculus [4] = test: Analgesic activity in Swiss albino mouse assessed as inhibition of acetic acid-induced writhings at 10 mg/kg, ip measured 30 mins post acetic acid challenge; type: functional; conditions: 0.5 h
Mus musculus [5] = test: Analgesic activity in ip dosed Swiss albino mouse assessed as inhibition of acetic acid-induced writhings measured 30 mins post acetic acid challenge; type: functional; conditions: 0.5 h
Mus musculus [6] = test: Anti-inflammatory activity in Swiss albino mouse model of carrageenan-induced-paw edema assessed as inhibition of paw edema at 5 mg/kg, ip after 3 hrs; type: functional
Mus musculus [7] = test: Anti-inflammatory activity in Swiss albino mouse model of carrageenan-induced-paw edema assessed as inhibition of paw edema at 10 mg/kg, ip after 3 hrs; type: functional
Mus musculus [8] = test: Analgesic activity in substance P pre-treated Swiss albino mouse assessed as inhibition of acetic acid-induced writhings at 5 mg/kg, ip measured 30 mins post acetic acid challenge; type: functional, organism-based
[9] = target: T2, Polyunsaturated fatty acid 5-lipoxygenase (Homo sapiens, UniProt P09917); test: Inhibition of 5-LOX (unknown origin)
T2 sequence (P09917 whole entry): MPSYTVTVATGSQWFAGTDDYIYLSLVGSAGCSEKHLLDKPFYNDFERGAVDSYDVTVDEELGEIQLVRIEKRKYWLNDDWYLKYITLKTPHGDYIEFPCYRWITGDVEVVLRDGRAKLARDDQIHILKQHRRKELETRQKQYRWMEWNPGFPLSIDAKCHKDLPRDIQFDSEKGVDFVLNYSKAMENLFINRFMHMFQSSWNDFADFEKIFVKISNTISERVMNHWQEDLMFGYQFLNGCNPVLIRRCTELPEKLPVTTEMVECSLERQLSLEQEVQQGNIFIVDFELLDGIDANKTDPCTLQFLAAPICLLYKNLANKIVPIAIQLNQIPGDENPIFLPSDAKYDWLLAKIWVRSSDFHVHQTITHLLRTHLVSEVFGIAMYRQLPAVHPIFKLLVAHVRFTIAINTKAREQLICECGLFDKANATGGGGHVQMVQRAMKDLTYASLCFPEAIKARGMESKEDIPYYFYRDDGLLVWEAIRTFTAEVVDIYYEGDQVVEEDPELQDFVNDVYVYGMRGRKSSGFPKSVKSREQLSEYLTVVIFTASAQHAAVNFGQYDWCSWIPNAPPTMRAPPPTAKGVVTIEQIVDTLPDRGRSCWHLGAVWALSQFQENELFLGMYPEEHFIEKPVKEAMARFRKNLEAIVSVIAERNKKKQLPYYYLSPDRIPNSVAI

Mus musculus [10] = test: Analgesic activity in […] pre-treated Swiss albino mouse assessed as inhibition of acetic acid-induced writhings at 5 mg/kg, ip measured 30 mins post acetic acid challenge; type: functional, organism-based
Mus musculus [11] = test: Acute toxicity in Swiss albino mouse assessed as induction of mortality at 50 to 2000 mg/kg, po measured over 14 days post dose; type: organism-based; conditions: in vivo, 336 h
Mus musculus [12] = test: Acute toxicity in Swiss albino mouse assessed as induction of behavioural impairment at 50 to 2000 mg/kg, po measured over 14 days post dose; type: organism-based; conditions: in vivo, 336 h
Mus musculus [13] = test: Acute toxicity in Swiss albino mouse assessed as induction of renal lesions at 50 to 2000 mg/kg, po measured over 14 days post dose by H and E staining based microscopy; type: organism-based; conditions: in vivo, 336 h
Mus musculus [14] = test: Acute toxicity in Swiss albino mouse assessed as induction of myocardial lesions at 50 to 2000 mg/kg, po measured over 14 days post dose by H and E staining based microscopy; type: organism-based; conditions: in vivo, 336 h
Mus musculus [15] = test: Acute toxicity in Swiss albino mouse assessed as induction of hepatic lesions at 50 to 2000 mg/kg, po measured over 14 days post dose by H and E staining based microscopy; type: organism-based; conditions: in vivo, 336 h
Mus musculus [16] = test: Acute toxicity in Swiss albino mouse assessed as induction of congestion in renal tissue at 50 to 2000 mg/kg, po measured over 14 days post dose by H and E staining based microscopy; type: organism-based; conditions: in vivo, 336 h
Mus musculus [17] = test: Acute toxicity in Swiss albino mouse assessed as induction of mesangium shrinkage at 50 to 2000 mg/kg, po measured over 14 days post dose by H and E staining based microscopy; type: organism-based; conditions: in vivo, 336 h
Mus musculus [18] = test: Acute toxicity in Swiss albino mouse assessed as induction of increase in capsular space at 50 to 2000 mg/kg, po measured over 14 days post dose by H and E staining based microscopy; type: organism-based; conditions: in vivo, 336 h
[19] = target: T3, Prostaglandin G/H synthase 2 (Homo sapiens) (UniProt P35354)
T3 sequence (whole entry): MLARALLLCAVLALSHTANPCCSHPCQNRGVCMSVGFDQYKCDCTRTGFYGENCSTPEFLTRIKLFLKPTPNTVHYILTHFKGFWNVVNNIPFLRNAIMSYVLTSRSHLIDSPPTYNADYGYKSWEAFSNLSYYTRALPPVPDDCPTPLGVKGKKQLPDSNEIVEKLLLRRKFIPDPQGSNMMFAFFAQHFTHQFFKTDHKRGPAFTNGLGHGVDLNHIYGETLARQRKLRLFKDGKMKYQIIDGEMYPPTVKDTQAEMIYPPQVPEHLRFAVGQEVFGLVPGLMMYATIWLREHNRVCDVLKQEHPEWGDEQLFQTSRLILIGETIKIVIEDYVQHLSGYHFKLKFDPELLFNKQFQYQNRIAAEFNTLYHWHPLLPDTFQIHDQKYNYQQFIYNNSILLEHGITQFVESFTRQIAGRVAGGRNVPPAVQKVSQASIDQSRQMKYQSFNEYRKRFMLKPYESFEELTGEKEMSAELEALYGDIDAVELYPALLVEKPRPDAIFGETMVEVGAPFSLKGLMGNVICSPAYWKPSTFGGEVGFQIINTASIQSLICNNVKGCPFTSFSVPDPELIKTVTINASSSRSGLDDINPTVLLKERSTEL
Description: Binding affinity to human COX2 assessed as binding constant by ITC

[20] = target: T3, Prostaglandin G/H synthase 2 (Homo sapiens); conditions: 10 uM

SMILES | IC50 [1] [µM] | inhibition in vivo at 5 mg/kg (Mus musculus [3]) [%] | inhibition in vivo at 10 mg/kg (Mus musculus [4]) [%] | also measured
O=C1COCCN1c1ccc(Nc2nc(Cl)nc(Nc3ccccc3)n2)cc1 | > 10 | 76 | 83 | Activity [2]: 1.7 ng/mL
O=C1COCCN1c1ccc(Nc2nc(Cl)nc(N3CCN(c4ccccc4)CC3)n2)cc1 | > 10 | – | – | –
O=C1COCCN1c1ccc(Nc2nc(Nc3ccc(Cl)cc3)nc(N3CCOCC3)n2)cc1 | 5 | – | – | –
COc1ccc(Nc2nc(Cl)nc(Nc3ccc(N4CCOCC4=O)cc3)n2)cc1 | > 10 | 47 | 79 | –
O=C1COCCN1c1ccc(Nc2nc(Cl)nc(Nc3ccc(Cl)cc3)n2)cc1 | > 10 | 79 | 90.2 | Activity [2]: 1.85 ng/mL; ED50 (Mus musculus [5]): 1.9 mg/kg; inhibition in vivo at 5 mg/kg (Mus musculus [6]): 28%
O=C(NCCOc1nc(Cl)nc(Nc2ccc(N3CCOCC3=O)cc2)n1)C1CCCN1C(=O)OCc1ccccc1 (configuration not stated) | > 10 | – | – | –
O=C1COCCN1c1ccc(Nc2nc(Cl)nc(OCCCl)n2)cc1 | > 10 | – | – | –
O=C1COCCN1c1ccc(Nc2nc(Cl)nc(NCc3ccccc3)n2)cc1 | > 10 | – | – | –
Nc1nc(Cl)nc(Nc2ccc(N3CCOCC3=O)cc2)n1 | > 10 | 67 | 74 | Activity [2]: 1.68 ng/mL
O=C(NCCOc1nc(Cl)nc(Nc2ccc(N3CCOCC3=O)cc2)n1)c1ccc(Cl)s1 | > 10 | – | – | –
Cc1ccc(Nc2nc(Cl)nc(Nc3ccc(N4CCOCC4=O)cc3)n2)cc1 | > 10 | – | – | –
[N-]=[N+]=NCCOc1nc(Cl)nc(Nc2ccc(N3CCOCC3=O)cc2)n1 | > 10 | – | – | –
COc1ccc2c(c1)c(CC(=O)O)c(C)n2C(=O)c1ccc(Cl)cc1 [INDOMETHACIN] | – | – | 63 | inhibition in vivo at 10 mg/kg (Mus musculus [7]): 30%
COC(=O)C(N)Cc1ccc(Oc2nc(Cl)nc(Nc3ccc(N4CCOCC4=O)cc3)n2)cc1 (configuration not stated) | > 10 | – | – | –
O=C1COCCN1c1ccc(Nc2nc(Cl)nc(Nc3ccc(Br)cc3)n2)cc1 | 50 | – | – | –
O=C1COCCN1c1ccc(Nc2nc(Cl)nc(N3CCCC3)n2)cc1 | 10 | 87 | 93 | Activity [2]: 1.9 ng/mL; ED50 (Mus musculus [5]): 2.2 mg/kg; inhibition in vivo at 5 mg/kg (Mus musculus [6]): 38%; Activity (Mus musculus [8]): inactive; IC50 [9]: > 10 µM; inhibition (Mus musculus [10]): Active; Activity (Mus musculus [11]): Non-Toxic; Activity (Mus musculus [12]): Non-Toxic; Activity (Mus musculus [13]): Non-Toxic; Activity (Mus musculus [14]): Non-Toxic; Activity (Mus musculus [15]): Non-Toxic; Activity (Mus musculus [16]): Toxic; Activity (Mus musculus [17]): Toxic; Activity (Mus musculus [18]): Toxic; Ka [19]: 5.37 ×10⁵ /M; Ka [20]: 2.54 ×10⁵ /M
Cc1ccc(-c2cc(C(F)(F)F)nn2-c2ccc(S(N)(=O)=O)cc2)cc1 [CELECOXIB] | – | 62 | – | inhibition in vivo at 5 mg/kg (Mus musculus [6]): 33%
O=C1COCCN1c1ccc(Nc2nc(Cl)nc(N3CCOCC3)n2)cc1 | > 10 | – | – | –
O=C1COCCN1c1ccc(Nc2nc(Cl)nc(Cl)n2)cc1 | > 10 | – | – | –
NCCOc1nc(Cl)nc(Nc2ccc(N3CCOCC3=O)cc2)n1 | > 10 | – | – | –
O=C1COCCN1c1ccc(Nc2nc(Cl)nc(Nc3ccc(O)cc3)n2)cc1 | 10 | 56 | 68 | Activity [2]: 1.64 ng/mL
Cc1ccc(S(=O)(=O)NCCOc2nc(Cl)nc(Nc3ccc(N4CCOCC4=O)cc3)n2)cc1 | > 10 | – | – | –
O=C1COCCN1c1ccc(Nc2nc(Cl)nc(NC3CCCCC3)n2)cc1 | > 10 | 56 | 81 | –
O=C(NCCOc1nc(Cl)nc(Nc2ccc(N3CCOCC3=O)cc2)n1)c1ccccc1F | > 10 | – | – | –
